Test results: US11969511B2, “Methods and compositions for antimicrobial treatment” (UNM Rainforest Innovations, priority 2015, dated 2024)
Converted amounts (≈) assume the structure as drawn. Where a name gives a salt, the structure may show the parent alone.

Legend:
P. aeruginosa biofilms = assay: Minimum inhibitory concentration, biofilm phase (XTT); type: cell-based, Pseudomonas aeruginosa PAO1; conditions: 24 h
P. aeruginosa = assay: Minimum inhibitory concentration of tobramycin (dilution series, plating); type: cell-based; conditions: Pseudomonas aeruginosa
Method: Determination of minimum inhibitory concentration of tobramycin. […] Afterwards, tobramycin was serially diluted into 1 mL of DI H2O and added to the 1 mL aliquots of overnight bacterial culture to the final concentrations of tobramycin ranging from 25 to 250 μg/mL, with 25 μg/mL increments. For the control, 1 mL of sterile DI H2O was added to the aliquot of the culture. The cultures were then grown overnight on a rotary shaker at 37° C. and 150 rpm. The next day, 50 μL aliquots of the overnight cultures were diluted 1:2 with TSB, plated on the TS nutrient agar plates, and grown for 24 hours at 37° C. The next-day plates were checked for the presence of bacterial colonies. […] These findings introduce a starting point for inhibition of established biofilms. This is the MIC for tobramycin alone, without attachment to NPs.

P. aeruginosa biofilm = assay: Biofilm-inhibition through mucin and alginate barriers (in vitro CF biofilm model, disks); type: cell-based, Pseudomonas aeruginosa; design: key to Sensitivity, Mucin barrier / Sensitivity, Alginate barrier / Sensitivity, Both barriers: S for sensitive; I for intermediate; R for resistant; conditions: tobramycin 2 mg/mL; for Sensitivity, Alginate barrier / Sensitivity, Both barriers / Sensitivity, Mucin barrier: NPs 50 mg/mL; for Biofilm inhibition (number), Alginate barrier / Biofilm inhibition (number), Both barriers / Biofilm inhibition (number), Mucin barrier: NPs alginate capped 50 mg/mL
From the text: Disk diffusion method. The disk diffusion method is one of the most popular approaches to bacterial sensitivity testing due to its low cost and efficiency. The disk, impregnated with a candidate antibiotic drug or compound of interest, is placed on the inoculated agar; which contains a uniform layer of bacteria taken from liquid culture. The disks are commercially available, containing the proper concentrations of antibiotic drugs based on […]. As a low-cost alternative, disks may be prepared using filter paper soaked in the appropriate aqueous concentrations of the antibiotic drugs of interest. The underside of the plate is numbered for each sample to be tested. The cultures are distributed evenly onto a sterile agar plate using a sterile cotton swab to form a uniform layer on the agar. The disks, impregnated with NPs, drug, or NP-drug conjugates are then placed on top of the agar. The cultures are allowed to grow in the previous conditions overnight (16-18 hours). For these experiments, an vitro biofilm model was that would mimic the infection in CF in which there is an alginate and mucin barrier to drug diffusion.

[1] = after magnetic treatment at 24 hours

| MIC80 of P. aeruginosa biofilms (P. aeruginosa biofilms) [µg/mL] | MIC (P. aeruginosa; biofilm cells) [µg/mL] | MIC (P. aeruginosa; planktonic cells) [µg/mL] | SMILES | Sensitivity, Alginate barrier (P. aeruginosa biofilm; [1]) | Sensitivity, Both barriers (P. aeruginosa biofilm; [1]) | Sensitivity, Mucin barrier (P. aeruginosa biofilm; [1]) | Biofilm inhibition (number), Alginate barrier (P. aeruginosa biofilm; [1]) | Biofilm inhibition (number), Both barriers (P. aeruginosa biofilm; [1]) | Biofilm inhibition (number), Mucin barrier (P. aeruginosa biofilm; [1]) | Sensitivity, Alginate barrier (P. aeruginosa biofilm; no magnetic treatment) | Sensitivity, Both barriers (P. aeruginosa biofilm; no magnetic treatment) | Sensitivity, Mucin barrier (P. aeruginosa biofilm; no magnetic treatment) | Biofilm inhibition (number), Alginate barrier (P. aeruginosa biofilm; no magnetic treatment) | Biofilm inhibition (number), Both barriers (P. aeruginosa biofilm; no magnetic treatment) | Biofilm inhibition (number), Mucin barrier (P. aeruginosa biofilm; no magnetic treatment) |
| --- | --- | --- | --- | --- | --- | --- | --- | --- | --- | --- | --- | --- | --- | --- | --- |
| 1 | – | – | O=C(O)c1cn(C2CC2)c2cc(N3CCNCC3)c(F)cc2c1=O [Cipro, Ciprofloxacin hydrochloride] | – | – | – | – | – | – | – | – | – | – | – | – |
| – | 50 (≈ 107 µM) | 15 (≈ 32.1 µM) | NC[C@H]1O[C@H](O[C@H]2[C@H](O)[C@@H](O[C@H]3O[C@H](CO)[C@@H](O)[C@H](N)[C@H]3O)[C@H](N)C[C@@H]2N)[C@H](N)C[C@@H]1O [Tobramycin, tobramycin] | S | S | S | 30 | 20 | 32 | S | S | S | 40 | 40 | 30 |
